Results reported in patent US20220002297A1, “POLYMORPHS OF X842” (Cinclus Pharma AG, priority 2020, published 2022).

Legend:
intragastric acidity = type: in vivo, human
Description: (§1) X842 is a prodrug of Linaprazan, which was disclosed in WO 99/55706 and previously studied in Phase I and II studies. […] A clinical Phase I study has shown that administration of a single dose of X842 can maintain the intragastric acidity above pH 4 for 24 hours. X842 is therefore tailored for patients with severe erosive gastroesophageal reflux disease (eGERD).
Following absorption into the blood stream, X842 is quickly metabolized into Linaprazan, which is the active metabolite of X842. Whereas the plasma concentration of X842 is only very low and difficult to determine, the plasma concentration of Linaprazan may be determined instead. […] It is estimated that this requires a minimal plasma concentration (Cmin) of Linaprazan of at least about 240 nmol/L after 22 hours. At such doses, a once daily oral administration of the formulation would be sufficient. Therefore, in another aspect, the invention relates to the pharmaceutical composition as disclosed herein, wherein a unit dose of the composition provides a Cmin of Linaprazan in a human of at least about 240 nmol/L after 22 hours following oral administration of the pharmaceutical composition to said human.

[1] = Phase I and II studies; cited from earlier work
[2] = Thermogravimetric analysis (TGA); type: physicochemical; details: for degradation of the sample (temperature): 25 to 320° C., 10° C./minute
Description: Analyses were performed on a Mettler Toledo TGA/DSC1 instrument, coupled with a Thermo Nicolet iS10 spectrometer. The sample was flushed with dry nitrogen gas during the analysis. The sample was scanned from 25 to 320° C. with a scan rate of 10° C./minute.
Degradation of the sample occurred at approximately 248° C.
Melting of the sample occurred at approximately 211° C., and degradation of the sample occurred at approximately 251° C.

[3] = Half-life in the body, X842 compared to Linaprazan; type: in vivo; details: in comparison with Linaprazan
Description: as §1

[4] = Dynamic vapour sorption (DVS) analysis, hygroscopicity; type: physicochemical
Description: Analyses were performed on a Surface Measurement Systems DVS Intrinsic instrument. The relative humidity at 25° C. was calibrated against the deliquescense point of LiCL, Mg(NO3)2 and KCl. The sample (about 10-20 mg) was dried with nitrogen gas until a dm/dt below 0.002% per minute was reached. The instrument was running in dm/dt mode using a minimum dm/dt stability duration of 10 minutes and a maximum equilibrium time of 180 minutes. The sample was subjected to a sorption-desorption cycle running from 0 to 95 to 0% RH. One cycle consisted of 20 steps, those between 0 and 90% RH were taken in 10% RH each.
The hygroscopicity of Form A was investigated using DVS at 25° C. The water uptake at 25° C./80% RH was about 0.08%, which means that Form A is non-hygroscopic.

In the case of `Cc1cccc(C)c1CNc1cc(C(=O)NCCO)cn2c(C)c(C)nc12` [Linaprazan], the “minimal plasma concentration (Cmin) of Linaprazan required to maintain intra-gastric pH above 4 for 24 hours” value (intragastric acidity; human, in vivo, po, 22 h) is given as “at least 240 nmol/L”, the “elimination from the body” value [1] is given as “quickly eliminated” and the tolerability [1] is given as “well tolerated”.
In the case of `Cc1cccc(C)c1CNc1cc(C(=O)NCCOC(=O)CCCC(=O)O)cn2c(C)c(C)nc12` [Form B, 5-{2-[({8-[(2,6-dimethylbenzyl)amino]-2,3-dimethylimidazo[1,2-a]pyridine-6-yl}carbonyl)-amino]ethoxy}-5-oxopentanoic acid], the “degradation of the sample (temperature)” value [2] is reported as “approximately 251 °C” and the weight loss ([2]; in the range of 128-220° C., attributed to loss of isopropyl alcohol) is reported as “approximately 1%”.
With `Cc1cccc(C)c1CNc1cc(C(=O)NCCOC(=O)CCCC(=O)O)cn2c(C)c(C)nc12` [Form X842, 5-{2-[({8-[(2,6-dimethylbenzyl)amino]-2,3-dimethylimidazo[1,2-a]pyridine-6-yl}carbonyl)-amino]ethoxy}-5-oxopentanoic acid] the “time intragastric pH is maintained above 4” value (intragastric acidity; after administration of X842, Phase I) was 24 hours and the “half-life in the body” value [3] was “longer”.
With `Cc1cccc(C)c1CNc1cc(C(=O)NCCOC(=O)CCCC(=O)O)cn2c(C)c(C)nc12` [Form A, 5-{2-[({8-[(2,6-dimethylbenzyl)amino]-2,3-dimethylimidazo[1,2-a]pyridine-6-yl}carbonyl)-amino]ethoxy}-5-oxopentanoic acid] the hygroscopicity ([4]; DVS at 25° C.) was “non-hygroscopic”, the water uptake ([4]; DVS, 25° C./80% RH) was “about 0.08%” and the “change of form after DVS (X-ray powder diffractograms before and after)” value ([4]; sorption-desorption cycle 0 to 95 to 0% RH, 25° C.) was “no change of form occurred”. The “degradation of the sample (temperature)” value [2] was “approximately 248 °C” and the “weight loss before melting” value ([2]; before melting at approximately 217° C.) was “did not show any weight loss”.
